Laboratory results from publication PMC6240685, “Strong Inhibitory Effect, Low Cytotoxicity and High Plasma Stability of Steroidal Inhibitors of N-Methyl-D-Aspartate Receptors With C-3 Amide Structural Motif” (Frontiers in Pharmacology, 2018).

Assays:
GluN1/GluN2A receptors = target: T1, GluN1/GluN2A receptors (Rattus norvegicus, UniProt P35439+Q00959); assay: Patch-clamp inhibition of GluN1/GluN2A receptors in transfected HEK293 cells; format: cell-based; conditions: 1 mM glutamate and 10 μM glycine
T1 construct: expressed in transfected cells; host or cells: HEK293
T1 sequence (Q00959 23-1464, other chains not shown): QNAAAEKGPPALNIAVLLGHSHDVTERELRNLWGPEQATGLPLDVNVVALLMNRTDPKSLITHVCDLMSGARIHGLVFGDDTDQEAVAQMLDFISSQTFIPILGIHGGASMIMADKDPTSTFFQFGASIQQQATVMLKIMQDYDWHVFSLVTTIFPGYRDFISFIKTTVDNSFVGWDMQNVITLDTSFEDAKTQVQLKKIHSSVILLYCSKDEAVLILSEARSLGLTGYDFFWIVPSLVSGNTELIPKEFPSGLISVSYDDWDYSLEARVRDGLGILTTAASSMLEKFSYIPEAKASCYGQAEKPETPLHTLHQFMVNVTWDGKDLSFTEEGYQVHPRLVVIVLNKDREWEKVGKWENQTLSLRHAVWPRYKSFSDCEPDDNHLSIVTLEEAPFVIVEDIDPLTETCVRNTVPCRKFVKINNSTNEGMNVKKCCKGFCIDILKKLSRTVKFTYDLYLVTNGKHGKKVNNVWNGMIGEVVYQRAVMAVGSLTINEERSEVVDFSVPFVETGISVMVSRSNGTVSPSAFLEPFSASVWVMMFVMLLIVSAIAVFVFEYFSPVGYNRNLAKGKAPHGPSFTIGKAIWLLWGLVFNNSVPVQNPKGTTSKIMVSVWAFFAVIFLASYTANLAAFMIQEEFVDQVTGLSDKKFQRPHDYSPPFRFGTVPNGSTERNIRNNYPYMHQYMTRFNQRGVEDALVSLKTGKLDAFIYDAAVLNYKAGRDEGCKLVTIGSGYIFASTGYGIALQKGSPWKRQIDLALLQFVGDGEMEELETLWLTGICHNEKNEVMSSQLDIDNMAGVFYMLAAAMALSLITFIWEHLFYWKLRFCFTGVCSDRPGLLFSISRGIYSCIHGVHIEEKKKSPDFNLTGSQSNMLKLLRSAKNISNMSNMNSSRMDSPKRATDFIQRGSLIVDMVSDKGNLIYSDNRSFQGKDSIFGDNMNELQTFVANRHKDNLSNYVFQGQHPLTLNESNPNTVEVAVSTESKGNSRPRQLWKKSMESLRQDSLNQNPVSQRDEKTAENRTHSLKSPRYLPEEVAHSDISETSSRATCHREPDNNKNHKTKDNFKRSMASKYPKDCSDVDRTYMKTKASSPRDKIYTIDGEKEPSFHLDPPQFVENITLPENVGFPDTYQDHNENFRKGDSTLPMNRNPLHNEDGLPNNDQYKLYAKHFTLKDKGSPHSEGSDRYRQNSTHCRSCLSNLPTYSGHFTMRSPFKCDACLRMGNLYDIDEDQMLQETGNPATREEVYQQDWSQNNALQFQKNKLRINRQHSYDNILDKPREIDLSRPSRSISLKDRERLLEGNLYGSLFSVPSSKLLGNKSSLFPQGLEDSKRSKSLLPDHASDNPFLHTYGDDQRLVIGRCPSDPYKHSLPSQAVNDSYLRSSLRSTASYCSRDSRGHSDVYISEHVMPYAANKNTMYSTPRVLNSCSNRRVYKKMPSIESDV
Procedure: FIGURE 7 Concentration–response properties of compound 6 on GluN1/GluN2A-D receptors. (A) Examples of traces obtained from HEK293 cells transfected with cDNAs encoding GluN1/GluN2A, GluN1/GluN2B, GluN1/GluN2C, and GluN1/GluN2D receptors. Agonists (1 mM glutamate and 10 μM glycine) were applied alone and simultaneously with compound 6 (10 μM) to evaluate the inhibitory effect of compound 6 on NMDAR mediated currents (duration of glutamate and steroid application is indicated by filled and open bars, respectively). (B) Concentration–response curves for the compound 6 effect at GluN1/GluN2A-D receptors. Data points are averaged values of normalized responses from at least four HEK293 cells. Error bars represent SD.
Electrophysiological experiments were performed on HEK293 cells transfected with plasmids encoding rat GluN1-1a/GluN2A-D and GFP genes as described previously, ([Petrovic et al., 2005]; [Cais et al., 2008]; [Korinek et al., 2010]) or on primary hippocampal neurons prepared from P0–P1 rats, plated on collagen/poly-D-lysine-coated glass coverslips at a density of ∼50,000 cells/cm^2, and grown in Neurobasal A medium with B27 Supplement (Gibco). Agonist-induced responses were voltage-clamped at a holding potential of −60 mV. […] Agonist-induced responses were low-pass filtered at 2 kHz, digitally sampled at 5 kHz, and analyzed with pClamp software version 10.5 (Molecular Devices). […]

HepG2 cells = assay: ROS induction (CM-H2DCFDA); format: cell-based; conditions: Homo sapiens, HepG2, 72 h; read-out: ROS induction EC50
Procedure: (A) Hepatotoxicity provoked by compound 4 was assessed after 72 h incubation of HepG2 cells in low glucose medium (5 mM) in the presence of compound 4 (0.25–100 μM). (B) Mitochondrial toxicity was determined after 24 h incubation of HepG2 cells in either high glucose medium (25 mM) or galactose medium (10 mM) in the presence of compound 4 (2.5–150 μM). Cell viabilities were recorded in triplicates in three independent experiments and expressed as percentage of vehicle control ± SD and IC50 values were determined by GraphPad Prism software using following equation: Y = Bottom + (Top–Bottom)/(1 + 10ˆ((LogIC50-X)^∗HillSlope)), where IC50 is the concentration of compound 4 that inhibits cell viability half way between Bottom and Top plateaus, X is compound 4 concentration and HillSlope describes the steepness of the family of curves. […] (C) Concentration-dependent effect on ROS level. HepG2 cells were treated with compound 4 (0.25–100 μM) for 72 h, and then the intracellular level of total ROS in relative fluorescence units (RFU) was detected. The data are presented as the mean ± SD for at least three independent experiments and each experiment was carried out in triplicate. Final concentration of DMSO in samples was 1%. […] Single asterisks (^∗) indicate a significant difference (P < 0.05) compared to 1% DMSO control (one-way ANOVA with Dunnett’s post-test).
The effect of neurosteroids on oxidative stress was determined using general oxidative stress indicator CM-H2DCFDA (Thermo Fisher Scientific, Waltham, MA, United States) according to the manufacturer’s instructions. Briefly HepG2 cells were seeded in a 96-well plate at a density of 13,500 cells per well. After 24 h, the tested neurosteroids were added to the culture media and incubated for 72 h. Subsequently, cells were washed with HBSS, treated with 100 μL of 1 μM CM-H2DCF-DA solution in HBSS and incubated for 1 h in the dark at 37°C. Finally, cells were washed three times with HBSS and the fluorescence was measured using 495 excitation and 527 emission in fluorescence microplate reader (Cytation 3, Winooski, VT, United States). IC50 index values were determined by GraphPad Prism version 5.00 for Windows (GraphPad Software, La Jolla, CA, United States).

Question: With C[C@@]12CCC[C@H]1[C@@H]1CC[C@@H]3C[C@H](NC(=O)[C@@H](N)CC(=O)O)CC[C@]3(C)[C@H]1CC2 [Compound 6, (S)-3-amino-4-(((3R,5R,8S,9S,10S,13S,14S)-10,13-dimethylhexadecahydro-1H-cyclopenta[a]phenanthren-3-yl)amino)-4-oxobutanoic acid] as the compound, how does the “h ± SD (apparent Hill coefficient)” value (GluN1/GluN2A receptors) read?
Answer: 1.3 ± 0.1

Question: And the IC50 (GluN1/GluN2A receptors; concentration-response)?
Answer: 6.5 ± 0.7 µM

Question: And the EC50 (HepG2 cells)?
Answer: > 200 µM
